Tests used:
[1] = tested on: hypertension attributed to 5/6 nephrectomy; assay: Prophylactic effect of one hour daily H2 inhalation after 5/6 nephrectomy, invasive arterial blood pressure at 4 weeks; assay type: in vivo, Lewis rat; conditions: four weeks after 5/6 nephrectomy; 1.3% H2 inhaled one hour daily from immediately after nephrectomy; N=3; mean±SE; P=0.02 vs control gas (134.1±3.3)
Method: Invasive blood pressure measurement was performed 4 weeks after gas inhalation. An arterial catheter (PE50, Natsume) was inserted under isoflurane inhalation into the left femoral artery, and arterial blood pressure was measured (DX-360, Nihon Kohden). In order to elicit renal hypertension, 5/6 nephrectomy was carried out with slight modification to previously described methods (Nephrology (Carlton) 19, 552-561; 10.1111/nep.12279 (2014); J. Am. Soc. Nephrol. 4, 2023-2031 (1994); and Kidney Int. 40, 29-34; 10.1038/ki.1991.175 (1991).). Briefly, rats were anesthetized by isoflurane inhalation (induction at 4% and maintenance at 1.5%), and upper midline laparotomy of about 4 cm was carried out. Surgical operation was performed under a microscope, the left renal artery branch was identified, and selectively ligated with 7-0 silk at a position as close as possible to the left kidney so that macroscopic infarction is caused in about ⅔ of the left renal cortex. In the first pilot research (FIGS. 1a and 2), a high-temperature cautery pen (AA11, Bovie, Tenn., U.S.A.) was used to add the resection of the infarcted portion of the kidney. Subsequently, the right renal artery, the renal vein, and the urinary duct was ligated with 4-0 silk, and the right kidney were resected. The abdominal wall and the skin were closed with a 4-0 nylon thread. […]

autonomic nerve function = assay: Autonomic nerve function by frequency analysis in spontaneous hypertension rats; assay type: in vivo, rat (SHR/Izumo); conditions: SHR
Method: Heart rate variability was analyzed using telemetry system software (Ponemah Ver. 6.3, Data Science International). Frequency domain analysis (sampling rate of 500 Hz; very low frequency (VLF) (0.05-0.25 Hz); low frequency (LF) (0.25-1.0 Hz); and high frequency (HF) (1.0-3.0 Hz)) was carried out using the arterial pressure waveform data of the first one minute of every five minutes (about 300 to 400 beats). In heart rate variability analysis, data recorded in the first 15 minutes was excluded, and effective data in the first one minute out of a block of every 5 minutes was used. LF and HF each reflected the sympathetic nerve component and the parasympathetic nerve component (Akselrod, S. et al. Power spectrum analysis of heart rate fluctuation: a quantitative probe of beat-to-beat cardiovascular control. Science 213, 220-222 (1981); Pagani, M. et al. Power spectral analysis of heart rate and arterial pressure variabilities as a marker of sympatho-vagal interaction in man and conscious dog. Circ. Res. 59, 178-193 (1986); and Montano, N. et al. Power spectrum analysis of heart rate variability to assess the changes in sympathovagal balance during graded orthostatic tilt. Circulation 90, 1826-1831 (1994)). LF/HF ratio and HF/(LF+HF) were each handled as indicators of sympathetic nerve activity and parasympathetic nerve activity (Heart rate variability: standards of measurement, physiological interpretation and clinical use. Task Force of the European Society of Cardiology and the North American Society of Pacing and Electrophysiology. Circulation 93, 1043-1065 (1996); and Pagani, M. et al. Relationship between spectral components of cardiovascular variabilities and direct measures of muscle sympathetic nerve activity in humans. Circulation 95, 1441-1448 (1997)).
H2 gas (1.3% H2+21% O2+77.7 N2) and control gas (21% O2+79% N2) were filled into gas cylinders in advance at a factory. The H2 group and the control group were allowed to inhale the H2 gas and the control gas that were mixed in advance. […]

## [2H][2H] [H2 gas, Molecular hydrogen (H2)]
[1]
  mean arterial pressure (MAP): 94.2±10.3 mmHg
Autonomic nerve function; Week two compared to Week 1
  paraSNA (HF/LF+HF) ratio: increases
Autonomic nerve function; after the first week after the end of inhalation
  influence on the autonomic nerve function after the end of inhalation: disappeared
Autonomic nerve function; during inhalation of H2
  SNA (LF/HF): decreases
